Experimental data reported in PMC8400955 (Pharmaceuticals, 2021).
Where “and” joins values, the source holds several entries; their conditions need not be identical. Identical values can stand only once.

Assays:
[1] = Single-dose PK and bioavailability in dogs; format: in vivo; conditions: beagle, dog, plasma; for bioavailability: PO 6 mg/kg/day vs IV 2 mg/kg/day; for AUC(0-t) / Cmax / Tmax: single dose
Method: […] […] All groups had one male and one female animal. Plasma samples were collected at various timepoints, through to 24 h post-dose, and analyzed for ZB716.
Four-to-six-week-old Sprague Dawley rats (Crl: CD (SD)) (SPF/VAF) were purchased from Beijing Vital River Laboratory Animal Technology, Co. Ltd.). Six-month-old beagle dogs were purchased from Beijing Marshall Biotechnology Co. Ltd. Animals were quarantined/acclimated for 2–6 weeks prior to dose initiation. Both Sprague Dawley rats and beagle dogs were given oral administration of ZB716 (20% PG, 5% Solutol, and 75% of 40% HP-β-CD in water) at different dose levels. After treatment with the test articles, whole blood was collected from each study animal by puncture of the tail vein (0.4 mL of whole blood from rats) and/or the peripheral vein (0.6 mL of whole blood from dogs) into tubes containing K2EDTA at each timepoint: pre-dose, and 0.5, 1, 2, 4, 8, and 24 h post-dose. The plasma samples were divided into 2 aliquots (approximately equal in volume) and stored frozen at −75 ± 15 °C within 2 h of the collection until analysis at Pharmaron, China.
The stock solution of ZB716 (5.0 mg/mL) and ZB716-d6 (1 mg/mL) in ACN:DI Water = 1:1 was prepared and stored at −20 ± 5 °C. The desired serial concentrations of working reference analyte solutions were achieved by diluting a stock analyte solution with 50% acetonitrile (0.1% formic acid) in water solution. The bioanalytical LC–MS/MS method was validated for quantitative determination of ZB716 in Sprague Dawley rat plasma and beagle dog plasma, with acceptable selectivity, sensitivity, calibration curve, precision, and accuracy. This method is applicable for the determination of ZB716 in Sprague Dawley rat plasma and beagle dog plasma, with a lower limit of quantification of 20.0 ng/mL, and an upper limit of quantification of 10,000 ng/mL.
Five microliters of diluted supernatant was injected into the LC–MS/MS system (Shimadzu LC30AD HPLC system with a SynergiTM 4 μm Fusion-RP 80 Å (50 × 2 mm) column using gradient elution and a Triple Quad 5500 mass spectrometer) for quantitative analysis. The mobile phases used were 0.1% formic acid in deionized water and 0.1% formic acid in acetonitrile. The pharmacokinetic parameters T1/2 (the biological half-life), Cmax (maximal concentration), Tmax (time at which Cmax is observed), and AUC (area under the plasma concentration–time curve) were calculated from the plasma concentration versus time data using WinNonlin (Phoenix^TM, version 8.1, Mountain View, CA, USA). All PK studies were conducted by Pharmaron in Beijing, China.

[2] = Metabolic stability in human hepatocytes; format: in vitro ADME
Method: (§1) Hepatocytes of humans (#X008001), dogs (#M00205), rats (#M00005), and mice (#M005052) were purchased from BioIVT, NY, USA. Monkey hepatocytes were procured from RILD, Shanghai, China. The metabolic stability of ZB716 in human, monkey, dog, rat and mouse hepatocytes was investigated by incubating ZB716 with human, monkey, dog, rat, and mouse hepatocytes (0.5 × 10^6 cells/mL), or with incubation medium only.
(§2) parent disappearance vs. incubation time curve.
(§3) Scaled-up Clint = kV/N × Scaling Factor
(§4) metabolite formed during the reaction.

[3] = test system: human hepatocytes; assay: Metabolic stability in human hepatocytes; format: in vitro ADME; conditions: 1 μM
Method: as §1, §2, §3, §4

[4] = target: CYP3A4 (Homo sapiens, UniProt P08684); assay: CYP phenotyping, recombinant CYP3A4
[5] = test system: CYP1A2; assay: CYP induction (enzyme activity) in cryopreserved human hepatocytes, CYP1A2; conditions: for fold induction at 72 h, 0.15 µM / fold induction at 72 h, 1.5 µM / fold induction at 72 h, 5 µM / fold induction at 72 h, 15 µM: human, plated cryopreserved human hepatocytes
[6] = test system: CYP2B6; assay: CYP induction (enzyme activity) in cryopreserved human hepatocytes, CYP2B6; conditions: for fold induction at 72 h, 0.15 µM / fold induction at 72 h, 1.5 µM / fold induction at 72 h, 5 µM / fold induction at 72 h, 15 µM: human, plated cryopreserved human hepatocytes

Sequence of CYP3A4 (P08684 whole entry): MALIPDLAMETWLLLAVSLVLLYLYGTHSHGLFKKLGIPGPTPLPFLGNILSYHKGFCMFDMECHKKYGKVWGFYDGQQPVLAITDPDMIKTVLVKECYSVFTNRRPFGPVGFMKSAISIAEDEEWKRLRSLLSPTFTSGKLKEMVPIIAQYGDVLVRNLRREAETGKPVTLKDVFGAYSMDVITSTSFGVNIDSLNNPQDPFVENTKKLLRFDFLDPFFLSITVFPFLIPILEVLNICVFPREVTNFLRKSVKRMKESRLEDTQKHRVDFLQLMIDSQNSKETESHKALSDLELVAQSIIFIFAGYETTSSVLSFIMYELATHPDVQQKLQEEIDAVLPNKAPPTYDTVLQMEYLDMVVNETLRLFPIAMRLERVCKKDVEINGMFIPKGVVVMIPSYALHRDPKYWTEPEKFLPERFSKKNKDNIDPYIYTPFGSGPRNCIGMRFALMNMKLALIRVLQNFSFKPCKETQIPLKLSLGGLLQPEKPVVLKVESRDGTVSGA

## C[C@]12CC[C@@H]3c4ccc(B(O)O)cc4C[C@@H](CCCCCCCCC[S+]([O-])CCCC(F)(F)C(F)(F)F)[C@H]3[C@@H]1CC[C@@H]2O (stereo partly shown) [ZB716, fulvestrant-3-boronic acid]
[1]; female, F
  bioavailability: 6.74%
[1]; female, IV 2 mg/kg/day, F
  AUC(0-t): 4310 ng·h/mL
  Cmax: 2710 ng/mL
  Tmax: 5 min
[1]; female, PO 6 mg/kg/day, F
  AUC(0-t): 872 ng·h/mL
  Cmax: 213 ng/mL
  Tmax: 30 min
[1]; female, PO 30 mg/kg/day, F
  AUC(0-t): 3460 ng·h/mL
  Cmax: 964 ng/mL
  Tmax: 60 min
[1]; female, PO 100 mg/kg/day, F
  AUC(0-t): 5840 ng·h/mL
  Cmax: 957 ng/mL
  Tmax: 30 min
[1]; male, M
  bioavailability: 6.18%
[1]; male, IV 2 mg/kg/day, M
  AUC(0-t): 3030 ng·h/mL
  Cmax: 2160 ng/mL
  Tmax: 5 min
[1]; male, PO 6 mg/kg/day, M
  AUC(0-t): 563 ng·h/mL
  Cmax: 157 ng/mL
  Tmax: 30 min
[1]; male, PO 30 mg/kg/day, M
  AUC(0-t): 5520 ng·h/mL
  Cmax: 988 ng/mL
  Tmax: 240 min
[1]; male, PO 100 mg/kg/day, M
  AUC(0-t): 7500 ng·h/mL
  Cmax: 1140 ng/mL
  Tmax: 120 min
[2]; read-out: Estimated In Vitro t1/2
  half-life at 1 μM: 34.9 ± 1 min
[2]; read-out: In Vitro Clint
  hepatocyte CLint at 1 μM: 39.7 ± 1.1 µL/min/1e6 cells
[2]; read-out: Scaled-Up Clint
  CLint scaled at 1 μM: 101 ± 3 mL/min/kg
[3]
  Remaining at 120 min: 7.98 ± 0.7%
[4]; human
  half-life at 2 µM: 5.91 ± 0.39 min
[4]; recombinant CYP3A4, 2 µM ZB716
  Clint: 2.35 µL/min/pmol CYP and 2.35 ± 0.15 µL/min/pmol CYP
[5]; donor one, 0.15 µM
  Percent of Control: 2.92%
  fold induction at 72 h, 0.15 µM: 1.24 ± 0.1
[5]; donor one, 1.5 µM
  Percent of Control: 18.4%
  fold induction at 72 h, 1.5 µM: 2.52 ± 0.17
[5]; donor one, 5 µM
  Percent of Control: 73.6%
  fold induction at 72 h, 5 µM: 7.09 ± 0.78
[5]; donor one, 15 µM
  Percent of Control: 80.0%
  fold induction at 72 h, 15 µM: 7.62 ± 1.63
[5]; donor three, 0.15 µM
  Percent of Control: 3.78%
  fold induction at 72 h, 0.15 µM: 1.2 ± 0.22
[5]; donor three, 1.5 µM
  Percent of Control: 45.0%
  fold induction at 72 h, 1.5 µM: 3.42 ± 0.2
[5]; donor three, 5 µM
  Percent of Control: 41.6%
  fold induction at 72 h, 5 µM: 3.24 ± 0.53
[5]; donor three, 15 µM
  Percent of Control: 20.3%
  fold induction at 72 h, 15 µM: 2.09 ± 0.49
[5]; donor two, 0.15 µM
  Percent of Control: 0.777%
  fold induction at 72 h, 0.15 µM: 1.11 ± 0.05
[5]; donor two, 1.5 µM
  Percent of Control: 8.38%
  fold induction at 72 h, 1.5 µM: 2.17 ± 0.03
[5]; donor two, 5 µM
  Percent of Control: 17.4%
  fold induction at 72 h, 5 µM: 3.44 ± 0.18
[5]; donor two, 15 µM
  Percent of Control: 12.6%
  fold induction at 72 h, 15 µM: 2.77 ± 0.34
[6]; all three donors, 1.5–15 μM
  induction fold compared to the vehicle control: 2.98–6.40
  induction percentage of the positive control: 37.4–92.1%
[6]; donor one, 0.15 µM
  Percent of Control: 2.22%
  fold induction at 72 h, 0.15 µM: 1.1 ± 0.05
[6]; donor one, 1.5 µM
  Percent of Control: 17.2%
  fold induction at 72 h, 1.5 µM: 1.77 ± 0.13
[6]; donor one, 5 µM
  Percent of Control: 70.6%
  fold induction at 72 h, 5 µM: 4.14 ± 0.06
[6]; donor one, 15 µM
  Percent of Control: 73.0%
  fold induction at 72 h, 15 µM: 4.24 ± 0.47
[6]; donor three, 0.15 µM
  Percent of Control: 2.61%
  fold induction at 72 h, 0.15 µM: 1.14 ± 0.09
[6]; donor three, 1.5 µM
  Percent of Control: 39.2%
  fold induction at 72 h, 1.5 µM: 3.07 ± 0.36
[6]; donor three, 5 µM
  Percent of Control: 37.4%
  fold induction at 72 h, 5 µM: 2.98 ± 0.74
[6]; donor three, 15 µM
  Percent of Control: 4.18%
  fold induction at 72 h, 15 µM: 1.22 ± 0.42
[6]; donor two, 0.15 µM
  Percent of Control: 3.16%
  fold induction at 72 h, 0.15 µM: 1.19 ± 0.1
[6]; donor two, 1.5 µM
  Percent of Control: 19.8%
  fold induction at 72 h, 1.5 µM: 2.16 ± 0.07
[6]; donor two, 5 µM
  Percent of Control: 71.7%
  fold induction at 72 h, 5 µM: 5.21 ± 0.24
[6]; donor two, 15 µM
  Percent of Control: 92.1%
  fold induction at 72 h, 15 µM: 6.4 ± 0.16
